Data reported in publication PMC12040169 (PLOS Biology, 2025).

Test: in vitro
Conditions: human, hela cells, % viability

Structure (SMILES)	viability at 28.5 h, 10 µM [%]
CCN1CCN(C(=O)CCn2c(C(F)F)cc3cccnc32)CC1 [CBK285026]	112
CC(=O)NC(c1ccccn1)C1CCCN(C(=O)C(C)C)C1 (stereo not shown) [CBK285030]	111
O=C1NCCCC12CCN(Cc1cccc3ncccc13)CC2 [CBK285033]	101
O=C(Cc1ccccc1F)N1CCC(c2cc3cccnc3[nH]2)CC1 [CBK285035]	104
CC(CC(=O)N1CCC(c2cc3cccnc3[nH]2)CC1)n1cccn1 (stereo not shown) [CBK285036]	100
CC(=O)N1Cc2ccccc2OC2(CCN(C(=O)C3CC3)CC2)C1 [CBK285037]	104
CC(C)(C)OC(=O)N1CCC(c2nc3ccccc3cc2N)CC1 [CBK285038]	82.6
CC(=O)NC(c1ccccn1)C1CCCN(C(=O)C2CC2)C1 (stereo not shown) [CBK285040]	100
Cn1cc(CN2CCCC(c3cc4ccccc4cn3)C2)cn1 (stereo not shown) [CBK285042]	101
Cc1csc(C(Cc2ccsc2)NC(=O)C2CCOCC2)n1 (stereo not shown) [CBK285047]	102
Cc1ccc2c(c1)C(=O)NCC1(CCN(Cc3ccccc3)CC1)O2 [CBK285048]	104
CC(=O)NC(c1ccccn1)C1CCN(C(=O)C2CCCCC2)CC1 (stereo not shown) [CBK285049]	98
Cn1nc(C2CCN(C(=O)CCc3ccccc3)CC2)c2cccnc21 [CBK285050]	103
Cc1c(C(=O)NC(Cc2cccs2)c2nccs2)cnn1C (stereo not shown) [CBK285053]	97.1
Cn1nccc1C(=O)NC(Cc1cccs1)c1nccs1 (stereo not shown) [CBK285055]	102
c1cnc2[nH]c(C3CCNCC3)c(CN3CCCCCC3)c2c1 [CBK285057]	102
O=C(Cn1c(C2CCCNC2)cc2cccnc21)N1CCCC1 (stereo not shown) [CBK285060]	94.4
CN(C)CC(=O)NC(Cc1cccs1)c1nccs1 (stereo not shown) [CBK285061]	91.1
O=C(c1n[nH]cc1Cl)N1CCCC(c2cc3ccccc3cn2)C1 (stereo not shown) [CBK285062]	88
O=C(CCn1c(C(F)F)cc2cccnc21)NC1CCCC1 [CBK285063]	95.5
O=C(CCn1c(C(F)F)cc2cccnc21)NC1CCCCC1 [CBK285064]	92.1
COc1ccccc1NC(=O)CCn1c(C(F)F)cc2cccnc21 [CBK285065]	99.2
O=C(CCn1c(C(F)F)cc2cccnc21)NCc1ccc(F)cc1 [CBK285067]	102
O=C(CCn1c(C(F)F)cc2cccnc21)NCc1ccccn1 [CBK285068]	100

Structure (SMILES)	viability at 28.5 h, 10 µM [%]
CN(Cc1ccncc1)C(=O)CCn1c(C(F)F)cc2cccnc21 [CBK285070]	81
CN(C)CC1COc2ccccc2CN1C(=O)Cc1ccccc1F (stereo not shown) [CBK285080]	89.5
CCC(C)NC(=O)Cn1c(C2CCCNC2)cc2cccnc21 (stereo not shown) [CBK285085]	109
O=C(Cn1cccc2cc(C3CCCNC3)nc1-2)N1CCCC1 (stereo not shown) [CBK285086]	88.7
O=C1CCCN1CC(=O)N1CCCC(c2cc3ccccc3cn2)C1 (stereo not shown) [CBK285091]	99.7
O=C(Cn1ccnc1)NC(Cc1cccs1)c1nccs1 (stereo not shown) [CBK285092]	93.2
Cc1n[nH]c(C)c1CC(=O)NC(Cc1cccs1)c1nccs1 (stereo not shown) [CBK285093]	92.1
O=C(CCCn1ccnc1)NC(Cc1cccs1)c1nccs1 (stereo not shown) [CBK285094]	90.1
Cn1cc(Cl)c(C2CCCCCN2C(=O)c2ccco2)n1 (stereo not shown) [CBK285105]	96.5
Cc1csc(C(Cc2ccsc2)NC(=O)c2ccnn2C)n1 (stereo not shown) [CBK285107]	104
Cc1csc(C(Cc2ccsc2)NC(=O)c2ccc(=O)[nH]c2)n1 (stereo not shown) [CBK285109]	95.2
O=C(NC(Cc1ccsc1)c1cccnc1)C1CCOCC1 (stereo not shown) [CBK285110]	92.9
Cn1cccc1CN1CCCC(n2c(=O)oc3ccccc32)C1 (stereo not shown) [CBK285111]	103
CO[C@H]1CC[C@H](C(=O)NC(Cc2ccsc2)c2cccnc2)CC1 (stereo partly shown) [CBK285114]	107
Cc1c(C(=O)NC(Cc2ccsc2)c2cccnc2)cnn1C (stereo not shown) [CBK285115]	110
O=C(NC(Cc1ccsc1)c1cccnc1)C1CCOC1 (stereo not shown) [CBK285116]	106
Cn1ccc(C(=O)NC(Cc2ccsc2)c2cccnc2)n1 (stereo not shown) [CBK285117]	107
Cn1cc(Cl)c(C2CCCCCN2C(=O)c2cc(C3CC3)on2)n1 (stereo not shown) [CBK285120]	109
Cc1csc(C(Cc2ccsc2)NC(=O)C2CCCO2)n1 (stereo not shown) [CBK285122]	107
Cc1csc(C(Cc2cccs2)NC(=O)CN(C)C)n1 (stereo not shown) [CBK285124]	97.9
Cc1nonc1CC(=O)N[C@H]1C2CCCCC2[C@@H]1c1ccccc1 (stereo partly shown) [CBK285126]	102
O=C(c1ccc(F)cc1)c1cn(CCO)c2c(Cl)nccc12 [CBK285129]	106
O=C(NC(Cc1cccs1)c1nccs1)c1ccncc1 (stereo not shown) [CBK285134]	93.9
O=C(Cn1cccn1)NC(Cc1cccs1)c1nccs1 (stereo not shown) [CBK285136]	94.4

Structure (SMILES)	viability at 28.5 h, 10 µM [%]
Cn1cc(C(=O)NC(Cc2ccsc2)c2nccs2)ccc1=O (stereo not shown) [CBK285140]	98.5
C=CCn1cc(CN2CCCC(O)(c3ccc(F)cc3)CC2)c(C)n1 (stereo not shown) [CBK285144]	92
Cn1ncc(Cl)c1C1CCCCCN1C(=O)c1cccnc1 (stereo not shown) [CBK285146]	108
Cc1csc(C(Cc2ccsc2)NC(=O)c2cnn(C)c2C)n1 (stereo not shown) [CBK285148]	104
Cc1csc(C(Cc2ccsc2)NC(=O)CCn2cccn2)n1 (stereo not shown) [CBK285149]	93.7
Cc1csc(C(Cc2ccsc2)NC(=O)C2CCOC2)n1 (stereo not shown) [CBK285150]	94.9
Cc1cnn(CC(=O)NC(Cc2ccsc2)c2nc(C)cs2)c1 (stereo not shown) [CBK285151]	86.6
Cc1ncccc1C(=O)NC(Cc1cccs1)c1nccs1 (stereo not shown) [CBK285153]	91.4
O=C(c1cccnc1)N1CCCC(c2cc3ccccc3cn2)C1 (stereo not shown) [CBK285154]	98.6
Cn1cc(C(=O)N2CCCC(c3cc4ccccc4cn3)C2)cn1 (stereo not shown) [CBK285155]	106
CCc1cc(C(=O)N2CCCC(c3cc4ccccc4cn3)C2)on1 (stereo not shown) [CBK285156]	101
O=C(Cn1c(C2CCOCC2)cc2cccnc21)NC1CCCC1 [CBK285157]	86.3
O=C(CCCn1ccnc1)NC(Cc1ccsc1)c1cccnc1 (stereo not shown) [CBK285158]	94.9
c1ccc([C@@H]2CN(Cc3cccnc3)C[C@H]2c2cc[nH]n2)cc1 [CBK285160]	88.9
C[C@H]1CN2C[C@H](O)CC2CN1Cc1cccn1Cc1ccccc1F (stereo partly shown) [CBK285165]	88.7
O=C(c1ccncc1)N1CCCC(c2cc3ccccc3cn2)C1 (stereo not shown) [CBK285166]	87
Cc1cnc2[nH]c(C(F)(F)F)c(CN3CCCC(CO)C3)c2c1 (stereo not shown) [CBK285167]	93.6
Cc1cnc2[nH]c(C3CCCN(C(=O)c4cn(C)nc4C)C3)cc2c1 (stereo not shown) [CBK285170]	110
Cc1cnc2[nH]c(C3CCCN(C(=O)c4cnn(C)c4C)C3)cc2c1 (stereo not shown) [CBK285171]	101
COCC(C)NC(=O)CCn1ccc2ccncc21 (stereo not shown) [CBK285172]	93.8
CC1(C)CCCN(C(=O)CCn2ccc3ccncc32)C1 [CBK285173]	87.3
CCC1(CC)CCN(C(=O)CCn2ccc3ccncc32)C1 [CBK285176]	84.9
CC(=O)N1CCCC(c2cc3cccnc3n2CC(=O)N(C)C)C1 (stereo not shown) [CBK285177]	106
Cc1ccnn1CCC(=O)N1CCCC1c1nc2ccccc2[nH]1 (stereo not shown) [CBK285178]	110

Structure (SMILES)	viability at 28.5 h, 10 µM [%]
Cn1cc([C@@H]2CN(Cc3ccc(F)c(F)c3)C[C@H]2N)c2ccncc21 [CBK285179]	88.3
Cc1ccc(CN2C[C@@H](N)[C@H](c3cn(C)c4cnccc34)C2)o1 [CBK285180]	84.2
O=C(c1cccs1)N1CCC(c2onc3c2CCCC3)CC1 [CBK285181]	93.3
COC(=O)C1(Cc2cc(-c3ccccc3F)no2)CCOCC1 [CBK285182]	87.8
Cc1ccn2cc(-c3ccc4c(c3)CC(C)N4S(C)(=O)=O)nc2c1 (stereo not shown) [CBK285183]	84.6
Cc1ccc2nc(-c3ccc4c(c3)CC(C)N4S(C)(=O)=O)cn2c1 (stereo not shown) [CBK285184]	79.4
CCOC(=O)CC(=O)N1CCC(c2onc3c2CC(C)CC3)CC1 (stereo not shown) [CBK285187]	100
CN(C)CC1CN(C(=O)c2ccccc2F)Cc2ccccc2O1 (stereo not shown) [CBK285188]	86.9
O=C(C1CC1)N1CCc2cc(-c3cn4ccccc4n3)ccc21 [CBK285193]	99.2
CC1Cc2cc(-c3cn4ccccc4n3)ccc2N1S(C)(=O)=O (stereo not shown) [CBK285194]	94.3
Cc1c(C(=O)N2CCC(c3nc(C)n4ccsc34)CC2)cnn1C [CBK285201]	111
OC1(c2cccnc2)C2CCCC1CN(Cc1cccc(F)c1F)C2 (stereo not shown) [CBK285205]	88.1
Cn1ccnc1C1(O)C2CCCC1CN(Cc1ccccc1F)C2 (stereo not shown) [CBK285206]	97.2
Cn1nccc1C(=O)NC(Cc1cccs1)c1ccccn1 (stereo not shown) [CBK285207]	96.1
Cc1ccc(C(=O)NC(Cc2cccs2)c2ccccn2)c(=O)[nH]1 (stereo not shown) [CBK285210]	89.8
Cc1ccn2cc(-c3ccc4c(c3)CCN4S(C)(=O)=O)nc2c1 [CBK285221]	88.3
O=C(NC1CC1)C1(Cc2ccccc2-c2cccnc2)CCOCC1 [CBK285222]	88.7
CC(=O)N1CCc2cc(-c3cc4ccccn4c3)ccc21 [CBK285224]	104
Cc1cccn2cc(-c3ccc4c(c3)CCN4S(C)(=O)=O)cc12 [CBK285226]	95.5
CC(=O)N1CCc2cc(-c3cc4cc(C)ccn4c3)ccc21 [CBK285228]	75.2
Cn1ncc2c1CCCN(C(=O)COc1ccc(F)cc1F)C2 [CBK285229]	90.6
CC(Oc1ccc(F)cc1)C(=O)N1CCCc2c(cnn2C)C1 (stereo not shown) [CBK285230]	82.1
